These are literature values, as cited in PubChem BioAssay AID1259409 (Chemical Carcinogenesis Research Information System (CCRIS), 2018).

SMILES strings stand for the structures.

The series has as its system rodent chemically induced tumor inhibition, incidence and multiplicity. Briefly: CCRIS tumor inhibitor studies. The conditions noted are these: Route [Inhibitor]: ORAL, Promoter: NONE USED; for outcome: Target Tissue: Type of Lesion: GALLBLADDER: CARCINOMA IN SITU.

With `O=[Se](O)O`, the “tumour outcome (control, treated, inhibition, significance)” value by setting is: (Carcinogen: 1,2-DIMETHYLHYDRAZINE, 540-73-8, Dose [Inhibitor]: 0, 10 MG/L IN DRINKING WATER FOR DURATION OF STUDY BEGINNING 7 D PRIOR TO CARCINOGEN TREATMENT (STUDY DURATION: 8 MO), Species: RAT, Strain/Sex: BD6/MALE, Target Tissue: Type of Lesion: INTESTINE: TUMOR, Dose [Carcinogen]: 20 MG/KG BW 1/WK FOR 20 WK) 100%, 100%, 0%, not significant; (Carcinogen: 1,2-DIMETHYLHYDRAZINE, 540-73-8, Dose [Inhibitor]: 4 PPM IN DRINKING WATER DAILY FOR 10-20 WK STARTING AFTER COMPLETION OF CARCINOGEN TREATMENT AND CONTINUING FOR DURATION, Species: RAT, Strain/Sex: SPRAGUE-DAWLEY/MALE, Target Tissue: Type of Lesion: COLON: ADENOCARCINOMA, VILLOUS ADENOMA, Dose [Carcinogen]: 20 MG/KG BW 1/WK FOR 20 WK) 29/32 (91%), 63/69 (91%), 0%, not calculated; (Carcinogen: 1,2-DIMETHYLHYDRAZINE, 540-73-8, Dose [Inhibitor]: 4 PPM IN DRINKING WATER DAILY FOR 20 WK STARTING SIMULTANEOUSLY WITH CARCINOGEN TREATMENT AND CONTINUING THROUGH END OF, Species: RAT, Strain/Sex: SPRAGUE-DAWLEY/MALE, Target Tissue: Type of Lesion: COLON: ADENOCARCINOMA, Dose [Carcinogen]: 20 MG/KG BW 1/WK FOR 20 WK) 13/15 (87%), 6/15 (40%), 54%, p 0.025; (Carcinogen: 1,2-DIMETHYLHYDRAZINE, 540-73-8, Dose [Inhibitor]: 4 PPM IN DRINKING WATER DAILY STARTING 2 WK PRIOR TO START OF CARCINOGEN TREATMENT AND CONTINUING FOR DURATION OF STUDY, Species: RAT, Strain/Sex: SPRAGUE-DAWLEY/MALE, Target Tissue: Type of Lesion: COLON: ADENOCARCINOMA, Dose [Carcinogen]: 20 MG/KG BW IN BACTERIOSTATIC SALINE 1/WK FOR 20 WK) 9/14 (64%), 4/13 (31%), 52%, not calculated; (Carcinogen: 2-(ACETYLAMINO)FLUORENE, 6292-55-3, Dose [Inhibitor]: 4 PPM IN DRINKING WATER DAILY STARTING 1 WK PRIOR TO CARCINOGEN TREATMENT AND CONTINUING FOR DURATION OF STUDY (STUDY DU, Species: RAT, Strain/Sex: SPRAGUE-DAWLEY/MALE, Target Tissue: Type of Lesion: LIVER: CARCINOMA, Dose [Carcinogen]: 0.03% IN DIET DAILY FOR 14 WK) 9/13 (69%), 4/14 (29%), 58%, not calculated; (Carcinogen: 3'-METHYL-4-DIMETHYLAMINOAZOBENZENE, 55-80-1, Dose [Inhibitor]: 6 PPM IN DRINKING WATER DAILY STARTING 1 WK PRIOR TO START OF CARCINOGEN TREATMENT AND CONTINUING FOR DURATION OF STUDY, Species: RAT, Strain/Sex: SPRAGUE-DAWLEY/MALE, Target Tissue: Type of Lesion: LIVER: ADENOCARCINOMA, Dose [Carcinogen]: 0.05% IN DIET DAILY FOR 8 WK) 11/12 (92%), 7/15 (46%), 50%, p<0.01. Also, the “tumour outcome (control, treated, inhibition, significance)” value is reported as 21/24 (88%), 11/20 (55%), 38%, p<0.05 (Carcinogen: 3-METHYLCHOLANTHRENE, 56-49-5, Dose [Inhibitor]: 0, 0.5 PPM IN DRINKING WATER FOR 24 WK BEGINNING 4 WK PRIOR TO CARCINOGEN TREATMENT (STUDY DURATION: 24 WK), Species: HAMSTER, Strain/Sex: SYRIAN/FEMALE, Target Tissue: Type of Lesion: GALLBLADDER: INVASIVE ADENOCARCINOMA, Dose [Carcinogen]: 3 MG IN BEESWAX PELLET INSERTED INTO GALLBLADDER AT WK 4 OF STUDY); 21/24 (88%), 10/21 (48%), 45%, p<0.05 (Carcinogen: 3-METHYLCHOLANTHRENE, 56-49-5, Dose [Inhibitor]: 0, 2 PPM IN DRINKING WATER FOR 24 WK BEGINNING 4 WK PRIOR TO CARCINOGEN TREATMENT (STUDY DURATION: 24 WK), Species: HAMSTER, Strain/Sex: SYRIAN/FEMALE, Target Tissue: Type of Lesion: GALLBLADDER: INVASIVE ADENOCARCINOMA, Dose [Carcinogen]: 3 MG IN BEESWAX PELLET INSERTED INTO GALLBLADDER AT WK 4 OF STUDY); 100%, 100%, 0%, not significant (Carcinogen: 3-METHYLCHOLANTHRENE, 56-49-5, Dose [Inhibitor]: 0, 2 UG/G/BW 2/WK FOR 20 WK (STUDY DURATION: 20 WK), Species: MOUSE, Strain/Sex: ICRC/MALE, Target Tissue: Type of Lesion: SKIN: PAPILLOMA, Dose [Carcinogen]: 50 UG IN 0.2 ML ACETONE 2/WK); 21/24 (88%), 12/22 (55%), 38%, p<0.05 (Carcinogen: 3-METHYLCHOLANTHRENE, 56-49-5, Dose [Inhibitor]: 0, 4 PPM IN DRINKING WATER FOR 24 WK BEGINNING 4 WK PRIOR TO CARCINOGEN TREATMENT (STUDY DURATION: 24 WK), Species: HAMSTER, Strain/Sex: SYRIAN/FEMALE, Target Tissue: Type of Lesion: GALLBLADDER: INVASIVE ADENOCARCINOMA, Dose [Carcinogen]: 3 MG IN BEESWAX PELLET INSERTED INTO GALLBLADDER AT WK 4 OF STUDY); 28/28 (100%), 24/25 (96%), 4%, not significant (Carcinogen: 4-(METHYLNITROSAMINO)-1-(3-PYRIDYL)-1-BUTANONE, 64091-91-4, Dose [Inhibitor]: 0, 0.0022 G/KG DIET (0.00008 UMOL/D) BEGINNING 2 WK PRIOR TO CARCINOGEN DOSE AND CONTINUING FOR DURATION OF STUDY (STUDY, Species: MOUSE, Strain/Sex: STRAIN-A/FEMALE, Target Tissue: Type of Lesion: LUNG: ADENOMA, Dose [Carcinogen]: 9.2, 9.1 MG/MOUSE IN DRINKING WATER DURING 7 WK); 100%, 100%, 0%, not significant (Carcinogen: 4-(METHYLNITROSAMINO)-1-(3-PYRIDYL)-1-BUTANONE, 64091-91-4, Dose [Inhibitor]: 0, 5 PPM IN DIET BEGINNING 1 WK PRIOR TO CARCINOGEN TREATMENT AND CONTINUING FOR 16 WK POST CARCINOGEN TREATMENT (STUDY, Species: MOUSE, Strain/Sex: STRAIN-A/FEMALE, Target Tissue: Type of Lesion: LUNG: ADENOMA, Dose [Carcinogen]: 10 UMOL IN 0.1 ML SALINE). Besides, the outcome (Carcinogen: 3-METHYLCHOLANTHRENE, 56-49-5, Dose [Inhibitor]: 0, 0.5 PPM IN DRINKING WATER FOR 24 WK BEGINNING 4 WK PRIOR TO CARCINOGEN TREATMENT (STUDY DURATION: 24 WK), Species: HAMSTER, Strain/Sex: SYRIAN/FEMALE, Dose [Carcinogen]: 3 MG IN BEESWAX PELLET INSERTED INTO GALLBLADDER AT WK 4 OF STUDY) is on record as 0/24 (0%), 3/20 (15%), -100%, not significant; the outcome (Carcinogen: 3-METHYLCHOLANTHRENE, 56-49-5, Dose [Inhibitor]: 0, 2 PPM IN DRINKING WATER FOR 24 WK BEGINNING 4 WK PRIOR TO CARCINOGEN TREATMENT (STUDY DURATION: 24 WK), Species: HAMSTER, Strain/Sex: SYRIAN/FEMALE, Dose [Carcinogen]: 3 MG IN BEESWAX PELLET INSERTED INTO GALLBLADDER AT WK 4 OF STUDY) is 0/24 (0%), 7/21 (33%), -100%, p<0.05; the outcome (Carcinogen: 3-METHYLCHOLANTHRENE, 56-49-5, Dose [Inhibitor]: 0, 4 PPM IN DRINKING WATER FOR 24 WK BEGINNING 4 WK PRIOR TO CARCINOGEN TREATMENT (STUDY DURATION: 24 WK), Species: HAMSTER, Strain/Sex: SYRIAN/FEMALE, Dose [Carcinogen]: 3 MG IN BEESWAX PELLET INSERTED INTO GALLBLADDER AT WK 4 OF STUDY) is listed as 0/24 (0%), 5/22 (23%), -100%, p<0.05.
